# From patent US6391892B1, “Naphthyl pharmaceutical compounds” (Eli Lilly and Company, priority 1995, dated 2002)
# Test system: ovariectomized (OVX) female Sprague Dawley rats
# Test: Osteoporosis Test Procedure (ovariectomized rat, femur density)
# Format: in vivo
# Details: orally administered in 20% hydroxypropyl cyclodextrin, daily for 35 days, compared to intact, vehicle treated controls
# Excerpt: Seventy-five day old female Sprague Dawley rats (weight range of 200 to 225 g) are obtained from Charles River Laboratories (Portage, Mich.). The animals are either bilaterally ovariectomized (OVX) or exposed to a Sham surgical procedure at Charles River Laboratories, and then shipped after one week. Upon arrival, they are housed in metal hanging cages in groups of 3 or 4 per cage and have ad libitum access to food (calcium content approximately 0.5%) and water for one week. Room temperature is maintained at 22.2°±1.70° C. with a minimum relative humidity of 40%. The photoperiod in the room is 12 hours light and 12 hours dark.
# After a one week acclimation period (therefore, two weeks post-OVX) daily dosing with test compound is initiated. […] The animals are then sacrificed by asphyxiation with CO2, the uterus is removed through a midline incision, and a wet uterine weight is determined.
# Following the General Preparation Procedure, infra, the rats are treated daily for 35 days (6 rats per treatment group) and sacrificed by carbon dioxide asphyxiation on the 36th day. The 35 day time period is sufficient to allow maximal reduction in bone density, measured as described herein. […]
# The right femurs are excised and digitilized x-rays generated and analyzed by an image analysis program (NIH image) at the distal metaphysis. […]
smiles,measurement,value
"C#C[C@]1(O)CC[C@H]2[C@@H]3CCc4cc(O)ccc4[C@H]3CC[C@@]21C [ethynyl estradiol, 17α-ethynyl estradiol]",reduction in femur density caused by ovariectomy,prevented this loss
